Test results from ChEMBL document CHEMBL4177534, “Discovery and evaluation of 1H-pyrrolo[2,3-b]pyridine based selective and reversible small molecule BTK inhibitors for the treatment of rheumatoid arthritis” (Bioorg Med Chem Lett, 2017).

How the values were obtained:
[1] = target: Tyrosine-protein kinase BTK (Homo sapiens, UniProt Q06187); assay: Inhibition of recombinant human full length BTK preincubated for 10 mins followed by Tk-biotin peptide substrate addition after 90 mins by TR-FRET assay
[2] = Metabolic stability in human liver microsomes assessed as metabolism rate; type: ADME, microsome
[3] = target: Tyrosine-protein kinase TXK (Homo sapiens, UniProt P42681); assay: Inhibition of TXK (unknown origin)
[4] = target: Tyrosine-protein kinase JAK3 (Homo sapiens, UniProt P52333); assay: Inhibition of recombinant human JAK3 (781 to 1124 residues) preincubated for 10 mins followed by poly-[Glu-Tyr(4:1) substrate addition after 60 mins in presence of ATP by Kinase-Glo assay
Tyrosine-protein kinase JAK3, sequence (P52333 whole entry, the tested form may be a part): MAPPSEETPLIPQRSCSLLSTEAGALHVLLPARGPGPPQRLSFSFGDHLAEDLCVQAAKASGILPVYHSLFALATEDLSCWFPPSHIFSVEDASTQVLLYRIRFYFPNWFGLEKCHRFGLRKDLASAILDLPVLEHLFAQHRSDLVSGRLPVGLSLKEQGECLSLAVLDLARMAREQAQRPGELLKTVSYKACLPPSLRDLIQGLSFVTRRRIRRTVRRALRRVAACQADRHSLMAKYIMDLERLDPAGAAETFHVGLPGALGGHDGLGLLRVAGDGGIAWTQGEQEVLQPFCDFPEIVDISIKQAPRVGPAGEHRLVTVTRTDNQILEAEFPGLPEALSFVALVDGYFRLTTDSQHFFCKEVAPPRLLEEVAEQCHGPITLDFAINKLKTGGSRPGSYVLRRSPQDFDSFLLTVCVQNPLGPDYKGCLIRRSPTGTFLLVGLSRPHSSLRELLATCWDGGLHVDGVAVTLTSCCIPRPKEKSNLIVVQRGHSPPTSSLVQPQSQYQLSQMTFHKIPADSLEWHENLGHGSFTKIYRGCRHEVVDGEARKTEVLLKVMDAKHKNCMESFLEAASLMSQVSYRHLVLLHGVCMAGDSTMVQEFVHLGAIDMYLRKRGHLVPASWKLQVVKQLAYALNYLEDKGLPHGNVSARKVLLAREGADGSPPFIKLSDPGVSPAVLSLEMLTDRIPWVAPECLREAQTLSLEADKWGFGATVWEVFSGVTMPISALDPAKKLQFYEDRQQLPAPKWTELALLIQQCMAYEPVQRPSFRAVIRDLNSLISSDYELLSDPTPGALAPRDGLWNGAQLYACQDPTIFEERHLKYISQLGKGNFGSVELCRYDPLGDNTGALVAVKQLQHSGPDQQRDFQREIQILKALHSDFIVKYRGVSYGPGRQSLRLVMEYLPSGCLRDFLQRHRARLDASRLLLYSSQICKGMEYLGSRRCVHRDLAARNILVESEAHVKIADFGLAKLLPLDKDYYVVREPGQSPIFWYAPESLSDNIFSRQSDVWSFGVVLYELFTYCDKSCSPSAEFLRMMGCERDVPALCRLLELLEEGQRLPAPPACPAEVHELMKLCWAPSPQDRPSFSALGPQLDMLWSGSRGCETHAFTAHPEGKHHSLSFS

[5] = target: Cytoplasmic tyrosine-protein kinase BMX (Homo sapiens, UniProt P51813); assay: Inhibition of human BMX
[6] = target: T1, Tyrosine-protein kinase BTK (Mus musculus, UniProt P35991); assay: Inhibition of mouse BTK assessed as decrease in anti-mouse IgD antibody stimulated BCR mediated CD69 upregulation in whole blood preincubated for 1 hr followed by antibody challenge after 4 hrs by flow cytometry
T1 sequence (P35991 whole entry): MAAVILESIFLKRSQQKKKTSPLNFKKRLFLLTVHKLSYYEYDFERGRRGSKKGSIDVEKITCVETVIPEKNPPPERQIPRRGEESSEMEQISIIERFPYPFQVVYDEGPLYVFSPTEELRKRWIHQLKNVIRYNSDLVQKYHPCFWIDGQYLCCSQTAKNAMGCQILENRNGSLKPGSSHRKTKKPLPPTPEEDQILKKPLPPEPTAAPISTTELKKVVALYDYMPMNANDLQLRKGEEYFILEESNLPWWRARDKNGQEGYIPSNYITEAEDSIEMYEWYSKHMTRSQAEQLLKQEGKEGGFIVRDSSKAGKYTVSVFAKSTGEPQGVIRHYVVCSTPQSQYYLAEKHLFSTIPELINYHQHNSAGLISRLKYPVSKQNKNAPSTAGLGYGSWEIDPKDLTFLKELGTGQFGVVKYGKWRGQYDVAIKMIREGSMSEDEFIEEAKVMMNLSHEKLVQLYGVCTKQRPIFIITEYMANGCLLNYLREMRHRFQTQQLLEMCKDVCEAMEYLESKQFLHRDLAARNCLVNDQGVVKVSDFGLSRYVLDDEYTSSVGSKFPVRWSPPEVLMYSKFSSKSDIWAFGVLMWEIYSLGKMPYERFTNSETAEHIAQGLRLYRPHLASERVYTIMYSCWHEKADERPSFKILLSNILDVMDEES

[7] = target: T1, Tyrosine-protein kinase BTK; assay: Inhibition of mouse BTK assessed as decrease in anti-CD3epsilon antibody stimulated TCR mediated CD69 upregulation in whole blood preincubated for 1 hr followed by antibody challenge after 4 hrs by flow cytometry
[8] = Clearance in mouse at 3 mg/kg, iv; type: ADME, organism-based; settings: in vivo
[9] = target: Interleukin-1 receptor-associated kinase 4 (Homo sapiens) (UniProt Q9NWZ3); assay: Inhibition of recombinant human full length N-terminal GST-tagged IRAK4 expressed in baculovirus infected Sf9 cells assessed as change in enzyme activity at 1 uM in presence of 2 uM ATP relative to control; parameters: scale not given: the % may be the effect or the level left
[10] = target: Homeodomain-interacting protein kinase 4 (Homo sapiens) (UniProt Q8NE63); assay: Inhibition of recombinant human full length N-terminal GST-tagged HIPK4 expressed in baculovirus infected Sf9 cells assessed as change in enzyme activity at 1 uM in presence of 2 uM ATP relative to control; parameters: scale not given: the % may be the effect or the level left
[11] = target: TGF-beta receptor type-2 (Homo sapiens) (UniProt P37173); assay: Inhibition of recombinant N-terminal GST-tagged TGFBR2 (unknown origin) expressed in baculovirus infected Sf9 cells assessed as change in enzyme activity at 1 uM in presence of 1 uM ATP relative to control; parameters: scale not given: the % may be the effect or the level left
[12] = target: Tyrosine-protein kinase Lck (Homo sapiens) (UniProt P06239); assay: Inhibition of recombinant human full length N-terminal GST-tagged LCK expressed in baculovirus infected Sf9 cells assessed as change in enzyme activity at 1 uM in presence of 1 uM ATP relative to control; parameters: scale not given: the % may be the effect or the level left
[13] = target: Cytoplasmic tyrosine-protein kinase BMX (Homo sapiens) (UniProt P51813); assay: Inhibition of recombinant full length N-terminal GST-tagged BMX (unknown origin) expressed in baculovirus infected Sf9 cells assessed as change in enzyme activity at 1 uM in presence of 2 uM ATP relative to control; parameters: scale not given: the % may be the effect or the level left
[14] = target: Calcium/calmodulin-dependent protein kinase type IV (Homo sapiens) (UniProt Q16566); assay: Inhibition of recombinant human full length N-terminal GST-tagged CAMK4 expressed in baculovirus infected Sf9 cells assessed as change in enzyme activity at 1 uM in presence of 2 uM ATP relative to control; parameters: scale not given: the % may be the effect or the level left
[15] = target: AMPK alpha2/beta1/gamma1 (Homo sapiens) (UniProt P54646+P54619+Q9Y478); assay: Inhibition of recombinant human full length C-terminal His tagged AMPKalpha2beta1gamma1 expressed in baculovirus infected Sf9 cells assessed as change in enzyme activity at 1 uM in presence of 2 uM ATP relative to control; parameters: scale not given: the % may be the effect or the level left
[16] = target: Epidermal growth factor receptor (Homo sapiens) (UniProt P00533); assay: Inhibition of recombinant human N-terminal GST-tagged EGFR expressed in baculovirus infected Sf9 cells assessed as change in enzyme activity at 1 uM in presence of 1 uM ATP relative to control; parameters: scale not given: the % may be the effect or the level left
[17] = target: Fibroblast growth factor receptor 4 (Homo sapiens) (UniProt P22455); assay: Inhibition of recombinant human N-terminal GST-tagged FGFR4 (460 to end) residues expressed in baculovirus infected Sf9 cells assessed as change in enzyme activity at 1 uM in presence of 1 uM ATP relative to control; parameters: scale not given: the % may be the effect or the level left
[18] = target: Hepatocyte growth factor receptor (Homo sapiens) (UniProt P08581); assay: Inhibition of recombinant human N-terminal GST-tagged MET (956 to end residues) expressed in baculovirus infected Sf9 cells assessed as change in enzyme activity at 1 uM in presence of 1 uM ATP relative to control; parameters: scale not given: the % may be the effect or the level left
[19] = target: Serine/threonine-protein kinase pim-2 (Homo sapiens) (UniProt Q9P1W9); assay: Inhibition of recombinant human full length N-terminal GST-tagged PIM2 expressed in baculovirus infected Sf9 cells assessed as change in enzyme activity at 1 uM in presence of 1 uM ATP relative to control; parameters: scale not given: the % may be the effect or the level left
[20] = target: Rho-associated protein kinase 1 (Homo sapiens) (UniProt Q13464); assay: Inhibition of recombinant human N-terminal GST-tagged ROCK1 (17 to 535 residues) expressed in baculovirus infected Sf9 cells assessed as change in enzyme activity at 1 uM in presence of 1 uM ATP relative to control; parameters: scale not given: the % may be the effect or the level left
[21] = target: Protein kinase C (PKC) (Homo sapiens) (UniProt O94806+P41743+P17252+P05129+Q05655+P05771+Q05513+Q02156+P24723+Q15139+Q04759); assay: Inhibition of recombinant human full length N-terminal GST-tagged PKCalpha expressed in baculovirus infected Sf9 cells assessed as change in enzyme activity at 1 uM in presence of 1 uM ATP relative to control; parameters: scale not given: the % may be the effect or the level left
[22] = target: Tyrosine-protein kinase ABL1 (Homo sapiens) (UniProt P00519); assay: Inhibition of recombinant human N-terminal GST-tagged ABL1 (27 to end residues) expressed in baculovirus infected Sf9 cells assessed as change in enzyme activity at 1 uM in presence of 1 uM ATP relative to control; parameters: scale not given: the % may be the effect or the level left
Tyrosine-protein kinase ABL1 (Homo sapiens), sequence (P00519 whole entry): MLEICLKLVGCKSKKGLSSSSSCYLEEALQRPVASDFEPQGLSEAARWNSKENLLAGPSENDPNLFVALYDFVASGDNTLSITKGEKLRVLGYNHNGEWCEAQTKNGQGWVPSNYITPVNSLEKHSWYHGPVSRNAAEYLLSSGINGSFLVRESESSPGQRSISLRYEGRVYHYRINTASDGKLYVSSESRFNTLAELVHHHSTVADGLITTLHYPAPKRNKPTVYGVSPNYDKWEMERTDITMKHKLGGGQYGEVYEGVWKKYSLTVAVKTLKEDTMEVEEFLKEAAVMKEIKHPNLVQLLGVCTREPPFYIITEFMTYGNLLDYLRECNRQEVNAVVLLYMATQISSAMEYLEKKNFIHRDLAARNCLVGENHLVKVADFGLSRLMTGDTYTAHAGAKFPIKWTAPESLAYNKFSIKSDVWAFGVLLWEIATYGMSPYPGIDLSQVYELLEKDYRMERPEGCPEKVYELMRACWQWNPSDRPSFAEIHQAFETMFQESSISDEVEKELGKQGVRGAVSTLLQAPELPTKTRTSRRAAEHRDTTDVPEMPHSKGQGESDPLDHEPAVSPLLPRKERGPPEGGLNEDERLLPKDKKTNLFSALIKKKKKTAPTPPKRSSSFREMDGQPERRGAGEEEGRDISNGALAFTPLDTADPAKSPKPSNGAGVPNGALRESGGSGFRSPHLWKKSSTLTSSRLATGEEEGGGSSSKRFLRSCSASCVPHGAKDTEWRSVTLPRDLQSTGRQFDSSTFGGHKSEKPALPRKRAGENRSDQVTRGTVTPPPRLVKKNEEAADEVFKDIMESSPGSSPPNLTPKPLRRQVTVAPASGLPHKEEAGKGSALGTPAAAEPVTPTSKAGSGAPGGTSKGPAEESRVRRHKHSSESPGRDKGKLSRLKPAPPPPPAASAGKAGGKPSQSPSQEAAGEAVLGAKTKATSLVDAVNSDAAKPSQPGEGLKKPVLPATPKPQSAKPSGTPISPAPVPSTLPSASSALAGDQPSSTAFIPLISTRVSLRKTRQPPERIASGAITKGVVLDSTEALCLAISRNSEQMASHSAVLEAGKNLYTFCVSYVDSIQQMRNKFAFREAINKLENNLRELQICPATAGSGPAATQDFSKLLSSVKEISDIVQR

[23] = target: Serine/threonine-protein kinase Nek11 (Homo sapiens) (UniProt Q8NG66); assay: Inhibition of recombinant human full length N-terminal GST-tagged NEK11 expressed in baculovirus infected Sf9 cells assessed as change in enzyme activity at 1 uM in presence of 2 uM ATP relative to control; parameters: scale not given: the % may be the effect or the level left
[24] = target: Insulin-like growth factor 1 receptor (Homo sapiens) (UniProt P08069); assay: Inhibition of recombinant human N-terminal His tagged IGF1R (960 to end residues) expressed in baculovirus infected Sf9 cells assessed as change in enzyme activity at 1 uM in presence of 2 uM ATP relative to control; parameters: scale not given: the % may be the effect or the level left
Insulin-like growth factor 1 receptor (Homo sapiens), sequence (P08069 31-736 limits assumed): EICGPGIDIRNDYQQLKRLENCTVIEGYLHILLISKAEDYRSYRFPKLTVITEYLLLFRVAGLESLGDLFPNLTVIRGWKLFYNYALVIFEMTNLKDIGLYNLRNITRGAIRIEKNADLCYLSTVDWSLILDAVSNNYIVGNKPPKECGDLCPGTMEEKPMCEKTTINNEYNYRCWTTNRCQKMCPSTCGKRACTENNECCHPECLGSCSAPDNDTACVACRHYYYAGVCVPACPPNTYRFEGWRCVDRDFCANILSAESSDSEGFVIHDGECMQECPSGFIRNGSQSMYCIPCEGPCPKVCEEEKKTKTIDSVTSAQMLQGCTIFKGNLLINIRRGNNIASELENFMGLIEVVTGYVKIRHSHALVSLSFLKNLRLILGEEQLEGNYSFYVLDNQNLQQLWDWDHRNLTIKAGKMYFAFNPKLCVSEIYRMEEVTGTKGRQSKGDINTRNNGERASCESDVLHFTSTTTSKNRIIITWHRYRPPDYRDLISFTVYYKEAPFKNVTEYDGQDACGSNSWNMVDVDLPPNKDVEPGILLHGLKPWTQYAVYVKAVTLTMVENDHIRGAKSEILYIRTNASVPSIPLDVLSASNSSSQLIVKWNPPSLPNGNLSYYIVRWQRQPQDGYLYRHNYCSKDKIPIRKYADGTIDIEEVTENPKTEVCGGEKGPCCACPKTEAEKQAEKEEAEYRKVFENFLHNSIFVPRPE
Insulin-like growth factor 1 receptor (Homo sapiens), sequence (P08069 741-1367 limits assumed): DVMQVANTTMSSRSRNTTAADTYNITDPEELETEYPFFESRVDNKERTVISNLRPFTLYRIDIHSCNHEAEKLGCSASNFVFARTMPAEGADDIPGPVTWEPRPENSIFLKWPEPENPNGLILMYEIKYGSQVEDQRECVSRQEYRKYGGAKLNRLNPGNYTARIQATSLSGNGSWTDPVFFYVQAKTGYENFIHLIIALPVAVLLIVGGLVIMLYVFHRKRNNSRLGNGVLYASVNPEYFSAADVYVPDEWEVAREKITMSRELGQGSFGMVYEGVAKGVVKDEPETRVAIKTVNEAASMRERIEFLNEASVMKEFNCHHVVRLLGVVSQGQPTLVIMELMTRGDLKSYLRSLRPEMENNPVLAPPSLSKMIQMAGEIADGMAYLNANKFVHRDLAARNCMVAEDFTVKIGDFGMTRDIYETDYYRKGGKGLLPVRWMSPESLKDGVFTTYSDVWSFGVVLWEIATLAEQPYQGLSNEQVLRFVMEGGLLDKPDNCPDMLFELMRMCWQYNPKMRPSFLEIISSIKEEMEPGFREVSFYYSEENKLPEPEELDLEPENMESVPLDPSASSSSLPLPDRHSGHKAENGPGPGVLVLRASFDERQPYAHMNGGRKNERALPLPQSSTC

[25] = target: PAK 1/CDC42 (Homo sapiens) (UniProt Q13153+P60953); assay: Inhibition of recombinant human full length N-terminal GST-tagged PAK1/CDC42 expressed in baculovirus infected Sf9 cells assessed as change in enzyme activity at 1 uM in presence of 2 uM ATP relative to control; parameters: scale not given: the % may be the effect or the level left
PAK 1/CDC42 (Homo sapiens), sequence (P60953 whole entry, looked up): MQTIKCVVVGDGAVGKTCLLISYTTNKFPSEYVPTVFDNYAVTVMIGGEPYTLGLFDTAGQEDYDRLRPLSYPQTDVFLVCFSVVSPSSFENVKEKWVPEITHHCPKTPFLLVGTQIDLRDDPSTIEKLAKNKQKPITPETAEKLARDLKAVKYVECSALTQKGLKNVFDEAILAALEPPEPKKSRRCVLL
PAK 1/CDC42 (Homo sapiens), sequence (Q13153 whole entry, looked up): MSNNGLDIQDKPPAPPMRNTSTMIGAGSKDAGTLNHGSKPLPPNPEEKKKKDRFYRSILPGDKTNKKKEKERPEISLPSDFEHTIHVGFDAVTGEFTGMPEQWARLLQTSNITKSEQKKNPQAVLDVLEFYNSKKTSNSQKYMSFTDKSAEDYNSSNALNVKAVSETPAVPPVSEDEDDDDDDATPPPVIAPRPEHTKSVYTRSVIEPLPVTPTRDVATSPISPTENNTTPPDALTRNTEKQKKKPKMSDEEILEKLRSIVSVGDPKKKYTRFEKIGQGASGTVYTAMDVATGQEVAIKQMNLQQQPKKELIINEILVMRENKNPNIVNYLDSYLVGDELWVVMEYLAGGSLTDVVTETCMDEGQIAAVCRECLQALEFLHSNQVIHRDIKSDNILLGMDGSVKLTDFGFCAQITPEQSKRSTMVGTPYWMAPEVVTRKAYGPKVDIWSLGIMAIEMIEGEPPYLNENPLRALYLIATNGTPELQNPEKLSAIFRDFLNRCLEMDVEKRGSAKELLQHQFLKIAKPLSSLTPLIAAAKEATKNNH

[26] = target: STE20-like serine/threonine-protein kinase (Homo sapiens) (UniProt Q9H2G2); assay: Inhibition of recombinant human full length N-terminal GST-tagged SLK expressed in baculovirus infected Sf9 cells assessed as change in enzyme activity at 1 uM in presence of 2 uM ATP relative to control; parameters: scale not given: the % may be the effect or the level left

Row | SMILES | IC50 [1] | Drug metabolism [2] | IC50 [3] | IC50 [4] | IC50 [5] | IC50 [6] | IC50 [7] | clearance [8] | Activity [9] | Activity [10] | Activity [11] | Activity [12] | Activity [13] | Activity [14] | Activity [15] | Activity [16] | Activity [17] | Activity [18] | Activity [19] | Activity [20] | further results
1 | CCN1CCN(Cc2ccc(-c3cc4c(-c5cccc(N6CCOc7cc(C8CC8)cc(F)c7C6=O)c5CO)ccnc4[nH]3)nc2)CC1 | 2.6 nM | < 0.04 nmol/min/mg | > 10000 nM | > 10000 nM | 1550 nM | 159 nM | 5060 nM | 4.6 mL/min/kg | -3% | 1% | 2% | -4% | -49% | -5% | 2% | 2% | 0% | -6% | 0% | -4% | Activity [21]: -1%; Activity [22]: -41%; Activity [23]: -5%; Activity [24]: 4%; Activity [25]: 0%; Activity [26]: -5%
2 | O=C1c2c(F)cc(C3CC3)cc2OCCN1c1cccc(-c2ccnc3[nH]c(C4=CCN(C5COC5)CC4)cc23)c1CO | 3.1 nM | < 0.04 nmol/min/mg | > 10000 nM | > 10000 nM | 4680 nM | 364 nM | > 30000 nM | 5.5 mL/min/kg | 2% | 3% | 3% | 1% | -10% | 1% | 1% | -1% | 1% | 5% | 1% | 3% | Activity [21]: -1%; Activity [22]: -16%; Activity [23]: -6%; Activity [24]: -6%; Activity [25]: 2%; Activity [26]: -9%
